Data from PubChem BioAssay AID2060883 (Molecular Pharmacology Branch, DTP, NCI, 2025).
“And” between values parts separate entries of the source, which are not always exact repeats. Equal entries are not always repeated.

Test system: 843782-103-R-J1-PDC complex spheroid viability
Assay: Anticancer human tumor 843782-103-R-J1-PDC patient-derived lung adenocarcinoma cell line growth inhibition [RAS]
Conditions: for viability, T/C: stronger effect = lower value
Procedure, shortened: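 Agents were tested in combination matrices in half-log decrements from a top concentration at or near clinical Cmax (10 microM if undetermined). Targets were multi-cell spheroids of tumour lines plus HUVEC and MSC stromal cells.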
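Further: viability read after seven days of compound exposure.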

## C=CC(=O)Nc1cc(Nc2nccc(-c3cn(C)c4ccccc34)n2)c(OC)cc1N(C)CCN(C)C
Compound 0.00316 µM
  viability, T/C: 101% [middle of 4 runs]
Compound 0.01 µM
  viability, T/C: 99.7% [middle of 4 runs]
Compound 0.0316 µM
  viability, T/C: 95.9% [middle of 4 runs]
Compound 0.1 µM
  viability, T/C: 102% (2×) and 84% and 95.2%
Compound 0.316 µM
  viability, T/C: 91.4% [middle of 4 runs]
Compound 1 µM
  viability, T/C: 68% [middle of 4 runs]
Curve of compound
  IC50: > 1 µM

## C=CC(=O)N1CCN(c2nc(OCC3CCCN3C)nc3c(F)c(-c4nc(N)cc(C)c4C(F)(F)F)c(Cl)cc23)C(C)C1 (centres undefined) + CCn1c(-c2cccnc2C(C)OC)c2c3cc(ccc31)N1CCOC(CC(NC(=O)C(C(C)C)N(C)C(=O)C3(F)CCN(C(=O)C#CC(C)(C)N(C)C)CC3)C(=O)N3CCCC(N3)C(=O)OCC(C)(C)C2)C1
Curve of first compound, second compound 0.000949 µM
  IC50: > 1 µM
Curve of first compound, second compound 0.003 µM
  IC50: > 1 µM
Curve of first compound, second compound 0.00949 µM
  IC50: > 1 µM
Curve of first compound, second compound 0.03 µM
  IC50: > 1 µM
Curve of first compound, second compound 0.0949 µM
  IC50: > 1 µM
Curve of first compound, second compound 0.3 µM
  IC50: > 1 µM
Second compound 0.000949 µM, first compound 0.00316 µM
  viability, T/C: 80.5%
Second compound 0.000949 µM, first compound 0.01 µM
  viability, T/C: 67.2%
Second compound 0.000949 µM, first compound 0.0316 µM
  viability, T/C: 75.9%
Second compound 0.000949 µM, first compound 0.1 µM
  viability, T/C: 77.9%
Second compound 0.000949 µM, first compound 0.316 µM
  viability, T/C: 72.8%
Second compound 0.000949 µM, first compound 1 µM
  viability, T/C: 78.5%
Second compound 0.003 µM, first compound 0.00316 µM
  viability, T/C: 71.4%
Second compound 0.003 µM, first compound 0.01 µM
  viability, T/C: 69.3%
Second compound 0.003 µM, first compound 0.0316 µM
  viability, T/C: 77.7%
Second compound 0.003 µM, first compound 0.1 µM
  viability, T/C: 81.6%
Second compound 0.003 µM, first compound 0.316 µM
  viability, T/C: 78.3%
Second compound 0.003 µM, first compound 1 µM
  viability, T/C: 74.4%
Second compound 0.00949 µM, first compound 0.00316 µM
  viability, T/C: 63.6%
Second compound 0.00949 µM, first compound 0.01 µM
  viability, T/C: 62.4%
Second compound 0.00949 µM, first compound 0.0316 µM
  viability, T/C: 77.5%
Second compound 0.00949 µM, first compound 0.1 µM
  viability, T/C: 80.1%
Second compound 0.00949 µM, first compound 0.316 µM
  viability, T/C: 88.1%
Second compound 0.00949 µM, first compound 1 µM
  viability, T/C: 74.4%
Second compound 0.03 µM, first compound 0.00316 µM
  viability, T/C: 82.4%
Second compound 0.03 µM, first compound 0.01 µM
  viability, T/C: 71.6%
Second compound 0.03 µM, first compound 0.0316 µM
  viability, T/C: 71.5%
Second compound 0.03 µM, first compound 0.1 µM
  viability, T/C: 75.4%
Second compound 0.03 µM, first compound 0.316 µM
  viability, T/C: 82.5%
Second compound 0.03 µM, first compound 1 µM
  viability, T/C: 69.4%
Second compound 0.0949 µM, first compound 0.00316 µM
  viability, T/C: 81.6%
Second compound 0.0949 µM, first compound 0.01 µM
  viability, T/C: 75.9%
Second compound 0.0949 µM, first compound 0.0316 µM
  viability, T/C: 77.6%
Second compound 0.0949 µM, first compound 0.1 µM
  viability, T/C: 79.7%
Second compound 0.0949 µM, first compound 0.316 µM
  viability, T/C: 77.7%
Second compound 0.0949 µM, first compound 1 µM
  viability, T/C: 77%
Second compound 0.3 µM, first compound 0.00316 µM
  viability, T/C: 65.4%
Second compound 0.3 µM, first compound 0.01 µM
  viability, T/C: 69.2%
Second compound 0.3 µM, first compound 0.0316 µM
  viability, T/C: 61.2%
Second compound 0.3 µM, first compound 0.1 µM
  viability, T/C: 70.7%
Second compound 0.3 µM, first compound 0.316 µM
  viability, T/C: 68%
Second compound 0.3 µM, first compound 1 µM
  viability, T/C: 69.6%
